Assay results taken from ChEMBL document CHEMBL4725227, “Dual-Target Inhibitors Based on HDACs: Novel Antitumor Agents for Cancer Therapy” (J Med Chem, 2020).

How the values were obtained:
[1] = biological target: Epidermal growth factor receptor (Homo sapiens, UniProt P00533); test: Inhibition of EGFR (unknown origin)
[2] = biological target: Histone deacetylase; test: Inhibition of HDAC (unknown origin); format: protein assay, Homo sapiens
[3] = test system: THP-1; test: Growth inhibition of human THP-1 cells; format: functional
[4] = biological target: Bromodomain-containing protein 4 (Homo sapiens, UniProt O60885); test: Inhibition of BRD4 (unknown origin)
[5] = biological target: Histone deacetylase 1 (Homo sapiens, UniProt Q13547); test: Inhibition of HDAC1 (unknown origin)
Histone deacetylase 1, sequence (Q13547 whole entry): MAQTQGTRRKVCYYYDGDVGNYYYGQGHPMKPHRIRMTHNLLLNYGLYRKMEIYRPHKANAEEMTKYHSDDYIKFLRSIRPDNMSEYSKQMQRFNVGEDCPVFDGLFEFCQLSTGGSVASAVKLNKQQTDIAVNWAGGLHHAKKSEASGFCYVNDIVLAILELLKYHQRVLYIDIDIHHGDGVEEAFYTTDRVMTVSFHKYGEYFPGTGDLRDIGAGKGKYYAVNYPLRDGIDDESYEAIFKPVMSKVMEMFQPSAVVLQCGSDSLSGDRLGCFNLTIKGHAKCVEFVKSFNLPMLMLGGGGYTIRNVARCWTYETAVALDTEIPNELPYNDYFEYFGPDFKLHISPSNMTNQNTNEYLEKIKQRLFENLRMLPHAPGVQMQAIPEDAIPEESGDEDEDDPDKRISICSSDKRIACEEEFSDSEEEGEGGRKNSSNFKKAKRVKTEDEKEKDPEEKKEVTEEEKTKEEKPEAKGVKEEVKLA

[6] = test system: HeLa; test: Cytotoxicity against human HeLa cells assessed as reduction in cell viability by MTT assay; format: functional, cell-based
[7] = test system: KG-1; test: Cytotoxicity against human KG-1 cells assessed as reduction in cell viability by MTT assay; format: functional, cell-based
[8] = test system: HT-29; test: Cytotoxicity against human HT-29 cells assessed as reduction in cell viability by MTT assay; format: functional, cell-based
[9] = test system: MDA-MB-468; test: Cytotoxicity against human MDA-MB-468 cells assessed as reduction in cell viability by MTT assay; format: functional, cell-based
[10] = test system: MDA-MB-231; test: Cytotoxicity against human MDA-MB-231 cells assessed as reduction in cell viability by MTT assay; format: functional, cell-based

Epidermal growth factor receptor, sequence (P00533 whole entry): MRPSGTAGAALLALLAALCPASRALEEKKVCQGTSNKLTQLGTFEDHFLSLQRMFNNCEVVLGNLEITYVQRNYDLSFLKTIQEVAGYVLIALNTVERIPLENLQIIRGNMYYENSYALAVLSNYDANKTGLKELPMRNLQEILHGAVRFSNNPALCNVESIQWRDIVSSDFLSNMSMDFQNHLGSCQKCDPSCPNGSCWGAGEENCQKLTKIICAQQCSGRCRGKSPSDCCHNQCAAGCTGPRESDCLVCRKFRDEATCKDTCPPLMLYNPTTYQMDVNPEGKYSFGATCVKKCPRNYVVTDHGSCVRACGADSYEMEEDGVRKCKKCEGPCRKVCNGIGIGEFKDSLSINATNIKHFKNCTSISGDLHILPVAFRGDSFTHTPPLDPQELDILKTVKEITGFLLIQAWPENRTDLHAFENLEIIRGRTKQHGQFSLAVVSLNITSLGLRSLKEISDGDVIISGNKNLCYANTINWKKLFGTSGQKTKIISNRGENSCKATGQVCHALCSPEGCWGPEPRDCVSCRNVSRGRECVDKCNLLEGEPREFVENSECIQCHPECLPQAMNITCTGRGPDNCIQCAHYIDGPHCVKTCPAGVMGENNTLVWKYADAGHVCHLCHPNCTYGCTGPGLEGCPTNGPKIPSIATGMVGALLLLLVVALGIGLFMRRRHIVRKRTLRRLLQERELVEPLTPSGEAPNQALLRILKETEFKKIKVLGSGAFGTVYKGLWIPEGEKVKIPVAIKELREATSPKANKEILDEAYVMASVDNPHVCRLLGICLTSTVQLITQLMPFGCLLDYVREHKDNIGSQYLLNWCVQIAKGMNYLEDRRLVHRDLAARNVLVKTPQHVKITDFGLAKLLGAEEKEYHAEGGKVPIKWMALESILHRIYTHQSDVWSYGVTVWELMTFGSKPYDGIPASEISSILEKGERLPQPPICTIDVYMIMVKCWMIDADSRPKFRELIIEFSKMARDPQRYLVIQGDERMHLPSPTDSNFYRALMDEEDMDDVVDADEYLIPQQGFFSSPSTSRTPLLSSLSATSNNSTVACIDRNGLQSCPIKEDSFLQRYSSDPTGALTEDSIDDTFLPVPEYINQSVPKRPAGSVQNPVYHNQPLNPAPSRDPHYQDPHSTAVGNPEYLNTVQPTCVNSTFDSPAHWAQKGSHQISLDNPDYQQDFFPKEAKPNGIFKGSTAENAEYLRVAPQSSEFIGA

Structure (SMILES) | IC50 [2] | GI50 [3] [nM] | further results
O=C(CCCCCCC(=O)Nc1ccccc1)NO [VORINOSTAT] | – | – | IC50 [1]: 900 nM
Cn1cc(-c2ccnc(Nc3ccc(C(=O)NCCCCCC(=O)NO)cc3)n2)c2ccccc21 | < 1000 nM | – | –
COc1cc(OC)c2c(=O)[nH]c(-c3ccc(OCCCCCCCC(=O)NO)cc3)nc2c1 | 291 nM | 15500 | –
COc1cc(C(=O)NCCCCCC(=O)NO)ccc1Nc1nccc(-c2cn(C)c3ccccc23)n1 | < 1000 nM | – | –
Cc1noc(C)c1-c1ccc2c(c1)c(CCc1ccc(F)cc1)cn2CCCCCC(=O)NO | 291 nM | 15500 | –
COc1cc(OC)c2c(=O)[nH]c(-c3cc(C)c(OCCCCC(=O)NO)c(C)c3)nc2c1 | – | – | IC50 [4]: 670 nM; IC50 [5]: 150 nM
Cc1noc(C)c1-c1ccc2c(c1)c(Cc1ccccc1)cn2CCCCCC(=O)NO | 291 nM | 15500 | –
Cn1cc(-c2ccnc(Nc3ccc(C(=O)Nc4ccccc4N)cc3)n2)c2ccccc21 | < 1000 nM | – | –
COc1cc(O)c(C(=O)Nc2ccc(F)c(Cl)c2)cc1NC(=O)CCCCCC(=O)NO | < 1000 nM | – | –
COC(c1c(F)cccc1Cl)c1c[nH]c2ncc(-c3c(C)noc3C)cc12 (configuration not stated) | 291 nM | 15500 | –
O=C(CCCCCC(=O)Nc1ccc(O)c(C(=O)Nc2cccc(C(F)(F)F)c2)c1)NO | < 1000 nM | – | –
O=C(CCCCCC(=O)Nc1ccc(O)c(C(=O)Nc2ccc(Cl)c(C(F)(F)F)c2)c1)NO | < 1000 nM | – | –
Cc1noc(C)c1-c1cc(NC(=O)CCCCCC(=O)NO)cc(C(=O)c2ccccc2)c1 | – | – | IC50 [4]: 670 nM; IC50 [5]: 150 nM
O=C(CCCCOc1ccccc1C(=O)Nc1cccc2[nH]cnc12)NO | 2700 nM | – | IC50 [4]: 260 nM; IC50 [5]: 150 nM
Cn1cc(-c2ccnc(Nc3ccc(C(=O)NCCCCCCC(=O)NO)cc3)n2)c2ccccc21 | <= 1 uM | – | IC50 [6]: 1850 nM; IC50 [7]: 240 nM; IC50 [8]: 790 nM; IC50 [9]: 230 nM; IC50 [10]: 600 nM; IC50 [1]: 5700 nM
O=C(CCCCCC(=O)Nc1ccc(O)c(C(=O)Nc2cccc(F)c2)c1)NO | < 1000 nM | – | –

Structure (SMILES) | IC50 [2] | GI50 [3] [nM] | further results
Cn1cc(-c2ccnc(Nc3ccc(C(=O)NCCCC(=O)NO)cc3)n2)c2ccccc21 | < 1000 nM | – | –
Cc1noc(C)c1-c1ccc2c(c1)c(Cc1ccccc1)cn2CCCCCCC(=O)NO | 291 nM | 15500 | –
Cc1cccc(Cc2cn(CCCCCC(=O)NO)c3ccc(-c4c(C)noc4C)cc23)c1 | 291 nM | 15500 | –
Cc1cccc(Cc2cn(CCCCCCC(=O)NO)c3ccc(-c4c(C)noc4C)cc23)c1 | 291 nM | 15500 | –
COc1cc(OC)c2c(=O)[nH]c(-c3cc(C)c(O)c(C)c3)nc2c1 | 291000 nM | 15500 | –
Cn1cc(-c2ccnc(Nc3ccc(C(=O)NCCC(=O)NO)cc3)n2)c2ccccc21 | < 1000 nM | – | –
COc1cc(OC)c2c(=O)[nH]c(-c3ccc(OCc4cc(C)c(/C=C/C(=O)NO)c(C)c4)cc3)nc2c1 | 291 nM | 15500 | –
C#Cc1cccc(NC(=O)c2cc(OCCCCCCC(=O)NO)ccc2O)c1 | < 1000 nM | – | –
Cc1noc(C)c1-c1ccc2c(c1)c(Cc1ccc(F)cc1)cn2CCCCCC(=O)NO | 291 nM | 15500 | –
Cc1noc(C)c1-c1ccc2c(c1)c(Cc1cccc(C(F)(F)F)c1)cn2CCCCCC(=O)NO | 291 nM | 15500 | –
Cc1ccccc1Cc1cn(CCCCCCC(=O)NO)c2ccc(-c3c(C)noc3C)cc12 | 291 nM | 15500 | –
Cc1noc(C)c1-c1ccc2c(c1)c(CCc1ccc(F)cc1)cn2CCCCCCC(=O)NO | 291 nM | 15500 | –
Cc1ccc(Cc2cn(CCCCCC(=O)NO)c3ccc(-c4c(C)noc4C)cc23)cc1 | 291 nM | 15500 | –
CC(=O)N1c2ccc(-c3ccc(NC(=O)CCCCCCC(=O)NO)cc3)cc2[C@H](NC(=O)OC(C)C)C[C@@H]1C | – | – | IC50 [5]: 150 nM
C=CC(=O)Nc1cc(Nc2nccc(-c3cn(C)c4ccccc34)n2)c(OC)cc1N(C)CCN(C)C [OSIMERTINIB] | < 1000 nM | – | –
COc1cc(OC)c2c(=O)[nH]c(-c3ccc(Oc4ccc(C(=O)NO)cn4)cc3)nc2c1 | 291 nM | 15500 | –
